Experiments:
[1] = source not given; cited from earlier work
[2] = ref fu,p references of Table SI; cited from earlier work
[3] = Empirical plasma PK model; type: in vivo, rat; settings: for clearance: rat, plasma, iv
[4] = Drug transport clearance at the brain cell membrane in the PBPK model; parameters: species or system rat; settings: comparison of QBCM_in/QBCM_out with QBBB_in/QBBB_out
[5] = Asymmetry factors; parameters: species or system rat; settings: for AFin2, asymmetry factor: into CSFLV at BCSFB1; for AFin2, asymmetry factor / AFout2, asymmetry factor: calculated from Kp,uu,CSFLV; for AFin3, asymmetry factor: into CSFTFV at BCSFB2; for AFin3, asymmetry factor / AFout3, asymmetry factor: calculated from Kp,uu,CSFCM; for AFin1, asymmetry factor: into brainECF at BBB; for AFin1, asymmetry factor / AFout1, asymmetry factor: calculated from Kp,uu,brainECF; for AFout2, asymmetry factor: out from CSFLV at BCSFB1; for AFout3, asymmetry factor: out from CSFTFV at BCSFB2; for AFout1, asymmetry factor: out from brainECF at BBB
[6] = rat; cited from earlier work
[7] = Free fraction in brain; type: in vitro ADME; settings: rat
[8] = source not given; cited from earlier work; remark: listed apart in the source
[9] = rat plasma PK model, estimate (RSE, %)
[10] = rat plasma PK model, parameter estimate (RSE, %)

| SMILES | Charge class [1] | ɷ_VPER1, interindividual variability [3, 9] | VPER1, distribution volume of the peripheral compartment 1 [3, 10] | VPL, distribution volume of the central compartment [3, 10] | what limits the transport clearance from brainMV, via brainECF, to brainICF [4] | ɷ_CLPL, interindividual variability [3, 9] | ɷ_QPL_PER2, interindividual variability [3, 9] | ɷ_VPL, interindividual variability [3, 9] | VPER2, distribution volume of the peripheral compartment 2 [3, 10] | clearance [3] | ɷ_QPL_PER1, interindividual variability [3, 9] | AFin2, asymmetry factor [5] | AFin3, asymmetry factor [5] | AFin1, asymmetry factor [5] | AFout2, asymmetry factor [5] | AFout3, asymmetry factor [5] | AFout1, asymmetry factor [5] | also measured |
| --- | --- | --- | --- | --- | --- | --- | --- | --- | --- | --- | --- | --- | --- | --- | --- | --- | --- | --- |
| CC(=O)Nc1ccc(O)cc1 [Acetaminophen] | Neutral | 51.8 (86.0) % | 363 (33.1) mL | 49.5 (59.0) mL |  |  |  |  |  |  |  |  |  |  |  |  |  | fu,p, free fraction in plasma [2]: 0.81; Fraction, percentage of the drug which is reabsorbed by enterohepatic circulation [3, 10]: 0.693 (19.6) |
| CC(C)NCC(O)COc1ccc(CC(N)=O)cc1 (stereo not drawn) [Atenolol] | Base |  |  |  |  |  |  |  |  |  |  |  |  |  |  |  |  |  |
| CN(Cc1cnc2nc(N)nc(N)c2n1)c1ccc(C(=O)N[C@@H](CCC(=O)O)C(=O)O)cc1 [Methotrexate] | Acid |  | 111 (14.6) mL | 28.0 (55.0) mL | limited by QBCM_in and QBCM_out | 37.4 (46.8) % | 42.5 (42.0) % | 40.4 (75.5) % | 83.5 (34.9) mL | 8.04 mL/min |  |  |  |  |  |  |  |  |
| CN1CC[C@]23c4c5ccc(O)c4O[C@H]2[C@@H](O)C=C[C@H]3[C@H]1C5 [Morphine] | Base | 46.0 (15.3) % |  |  |  | 17.8 (39.5) % | 86.7 (19.3) % | 80.6 (17.2) % |  |  | 28.8 (29.4) % |  |  |  |  |  |  | ɷ_study1, interoccasional variability [3, 9]: 42.7 (16.2) %; ɷ_study2, interoccasional variability [3, 9]: 29.7 (30.5) % |
| Cc1nc2n(c(=O)c1CCN1CCC(c3noc4cc(F)ccc34)CC1)CCCC2O (stereo not drawn) [Paliperidone] | Base |  | 3,580 (35.8) mL | 26,400 (12.6) mL | limited by QBBB_in and QBBB_out | 42.0 (62.5) % |  | 47.5 (81.4) % |  | 196 mL/min |  | 1.0 | 1.0 | 1.0 | 3.7 | 4.7 | 3.0 | pKa (acid) [1]: 13.7; Kp,uu,CSFCM, unbound CSFCM-to-plasma concentration ratio [6]: 0.50; Kp,uu,CSFLV, unbound CSFLV-to-plasma concentration ratio [6]: 0.50; Kp,uu,brainECF, unbound brain extracellular fluid-to-plasma concentration ratio [6]: 0.50; fraction unbound [7]: 0.065 |
| O=C1NC(=O)C(c2ccccc2)(c2ccccc2)N1 [Phenytoin] | Neutral |  | 2,050 (7.50) mL | 943 (21.5) mL | limited by QBBB_in and QBBB_out | 73.8 (12.5) % |  | 75.0 (27.2) % |  | 36 mL/min |  | 1.0 | 1.0 | 1.0 | 7.6 | 7.7 | 4.2 | fu,b, free fraction in brain [8]: 0.080; Kp,uu,CSFCM, unbound CSFCM-to-plasma concentration ratio [6]: 0.26; Kp,uu,CSFLV, unbound CSFLV-to-plasma concentration ratio [6]: 0.26; Kp,uu,brainECF, unbound brain extracellular fluid-to-plasma concentration ratio [6]: 0.26 |
| C=C[C@H]1C[N@@]2CC[C@H]1C[C@@H]2[C@@H](O)c1ccnc2ccc(OC)cc12 [Quinidine] |  | 12.8 (26.6) % |  |  |  | 23.9 (15.3) % |  |  |  |  | 24.3 (28.2) % |  |  |  |  |  |  |  |
| CCN1CCC[C@H]1CNC(=O)c1c(O)c(Cl)cc(Cl)c1OC [Raclopride] | Zwitterion |  | 684 (19.2) mL | 48.9 (16.3) mL | limited by QBBB_in and QBBB_out | 14.4 (29.8) % |  |  | 493 (18.3) mL | 46.4 mL/min |  | 1.0 | 1.0 | 1.0 | 1.1 | 1.9 | 1.4 | pKa (acid) [1]: 5.9; pKa (base) [1]: 9.0 |
| CCN1CCC[C@H]1CNC(=O)c1c(OC)ccc(Br)c1OC [Remoxipride] | Base |  | 253 (10.9) mL | 83.7 (18.3) mL |  | 31.0 (12.0) % | 76.7 (13.5) % | 64.1 (32.9) % | 757 (4.00) mL | 42.2 mL/min | 25.1 (12.1) % |  |  |  |  |  |  |  |
| Cc1nc2n(c(=O)c1CCN1CCC(c3noc4cc(F)ccc34)CC1)CCCC2 [Risperidone] | Base |  |  | 43,100 (28.1) mL | limited by QBBB_in and QBBB_out | 72.5 (38.7) % |  | 53.7 (78.8) % |  | 886 mL/min |  | 1.0 | 1.0 | 1.0 | 1.3 | 1.5 | 1.3 | fu,b, free fraction in brain [8]: 0.065 |

From PMC5702903 (CPT: Pharmacometrics & Systems Pharmacology, 2017)
